In ChEMBL document CHEMBL5143580, “Ophiorrhines F and G, Key Biogenetic Intermediates of Ophiorrhine Alkaloids from Ophiorrhiza japonica and Their Immunosuppressant Activities” (J Nat Prod, 2022):

What was measured:
[1] = Cytotoxicity in BALB/c mouse Splenocyte assessed as reduction in cell viability incubated for 48 hrs by CCK-8 assay; format: toxicity, cell-based; conditions: splenocytes
Splenocyte [2] = assay: Immunosuppressive activity in BALB/c mouse Splenocyte assessed as inhibition of concanavalin A induced T-cell proliferation by [3H]-thymidine incorporation based beta scintillation counter analysis; format: functional
Splenocyte [3] = assay: Immunosuppressive activity in BALB/c mouse Splenocyte assessed as inhibition of LPS induced B-cell proliferation by [3H]-thymidine incorporation based beta scintillation counter analysis; format: functional
[4] = Selectivity index, ratio of CC50 for BALB/c mouse Splenocyte to IC50 for Immunosuppressive activity in BALB/c mouse Splenocyte assessed as inhibition of concanavalin A-induced T-cell proliferation; format: toxicity; conditions: splenocytes, read-out: Ratio CC50/IC50
[5] = Selectivity index, ratio of CC50 for BALB/c mouse Splenocyte to IC50 for Immunosuppressive activity in BALB/c mouse Splenocyte assessed as inhibition of LPS-induced B-cell proliferation; format: toxicity; conditions: splenocytes, read-out: Ratio CC50/IC50

| Structure (SMILES) | CC50 at 48 h [1] | IC50 (Splenocyte [2]) | IC50 (Splenocyte [3]) | selectivity ratio [4] | selectivity ratio [5] |
| --- | --- | --- | --- | --- | --- |
| C=C[C@H]1[C@H](O[C@@H]2O[C@H](CO)[C@@H](O)[C@H](O)[C@H]2O)OC=C(C(=O)OC)[C@H]1CC(=O)c1[nH]c2ccccc2c1CC(=O)NC | 170 µM | > 200 µM | 47.4 µM | < 0.85 | 3.59 |
| C=C[C@H]1[C@H](O[C@@H]2O[C@H](CO)[C@@H](O)[C@H](O)[C@H]2O)OC=C(C(=O)OC)[C@H]1CC(=O)c1[nH]c2ccccc2c1[C@H](OC)C(=O)NC | 208 µM | > 200 µM | < 0.38 µM | < 1.04 | > 548 |
